The text below walks through data of ChEMBL document CHEMBL5291721, “A preclinical secondary pharmacology resource illuminates target-adverse drug reaction associations of marketed drugs” (Nat Commun, 2023).

In experiment [1] the target is T1, Thromboxane A2 receptor (Homo sapiens, UniProt P21731).
T1 sequence (P21731 whole entry): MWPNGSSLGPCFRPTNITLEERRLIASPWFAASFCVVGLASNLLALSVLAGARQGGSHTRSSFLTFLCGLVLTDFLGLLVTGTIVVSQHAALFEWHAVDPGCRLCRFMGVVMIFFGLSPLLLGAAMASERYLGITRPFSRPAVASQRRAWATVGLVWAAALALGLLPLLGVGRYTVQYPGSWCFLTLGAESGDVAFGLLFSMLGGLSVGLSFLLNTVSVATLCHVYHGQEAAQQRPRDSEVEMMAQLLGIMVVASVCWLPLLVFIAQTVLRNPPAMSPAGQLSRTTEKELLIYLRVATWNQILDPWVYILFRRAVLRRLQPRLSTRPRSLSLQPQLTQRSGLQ
Type of experiment: functional, cell-based.

The target of experiment [2] is T1, Thromboxane A2 receptor. Type of experiment: functional, cell-based. This is another data set of the same source.
Experiment [3] has as its target T2, Muscarinic acetylcholine receptor M2 (Homo sapiens, UniProt P08172).
T2 sequence (P08172 whole entry): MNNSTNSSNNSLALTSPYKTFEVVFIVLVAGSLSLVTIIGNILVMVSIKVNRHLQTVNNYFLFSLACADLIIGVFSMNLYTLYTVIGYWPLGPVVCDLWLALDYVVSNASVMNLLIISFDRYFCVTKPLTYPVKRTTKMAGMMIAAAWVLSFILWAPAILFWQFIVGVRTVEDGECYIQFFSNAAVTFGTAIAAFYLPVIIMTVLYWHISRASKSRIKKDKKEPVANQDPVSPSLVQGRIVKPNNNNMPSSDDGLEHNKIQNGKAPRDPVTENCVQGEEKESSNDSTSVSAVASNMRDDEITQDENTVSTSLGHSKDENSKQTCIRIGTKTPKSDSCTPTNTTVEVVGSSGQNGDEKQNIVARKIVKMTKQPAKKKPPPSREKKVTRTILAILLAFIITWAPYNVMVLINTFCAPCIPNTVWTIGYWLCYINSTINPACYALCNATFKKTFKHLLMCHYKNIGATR

For experiment [4], the target named is Histamine H3 receptor (Homo sapiens, UniProt Q9Y5N1).
Sequence of Histamine H3 receptor (Q9Y5N1 whole entry): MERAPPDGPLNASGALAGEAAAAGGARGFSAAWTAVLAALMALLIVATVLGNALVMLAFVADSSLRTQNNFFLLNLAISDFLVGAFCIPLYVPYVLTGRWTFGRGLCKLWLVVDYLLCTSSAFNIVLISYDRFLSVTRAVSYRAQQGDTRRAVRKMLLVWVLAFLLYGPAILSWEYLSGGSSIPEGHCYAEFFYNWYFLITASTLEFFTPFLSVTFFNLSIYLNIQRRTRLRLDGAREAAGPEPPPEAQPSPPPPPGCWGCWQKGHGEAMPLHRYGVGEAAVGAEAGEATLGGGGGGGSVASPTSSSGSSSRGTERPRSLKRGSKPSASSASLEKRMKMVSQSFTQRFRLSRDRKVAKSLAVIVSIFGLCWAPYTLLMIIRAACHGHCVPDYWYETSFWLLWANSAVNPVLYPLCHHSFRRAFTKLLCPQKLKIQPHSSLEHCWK
Experiment [5] has as its target Prostaglandin G/H synthase 1 (Homo sapiens, UniProt P23219). Type of experiment: functional.
Experiment [6] deals with T3, Muscarinic acetylcholine receptor M1 (Homo sapiens, UniProt P11229).
T3 sequence (P11229 whole entry): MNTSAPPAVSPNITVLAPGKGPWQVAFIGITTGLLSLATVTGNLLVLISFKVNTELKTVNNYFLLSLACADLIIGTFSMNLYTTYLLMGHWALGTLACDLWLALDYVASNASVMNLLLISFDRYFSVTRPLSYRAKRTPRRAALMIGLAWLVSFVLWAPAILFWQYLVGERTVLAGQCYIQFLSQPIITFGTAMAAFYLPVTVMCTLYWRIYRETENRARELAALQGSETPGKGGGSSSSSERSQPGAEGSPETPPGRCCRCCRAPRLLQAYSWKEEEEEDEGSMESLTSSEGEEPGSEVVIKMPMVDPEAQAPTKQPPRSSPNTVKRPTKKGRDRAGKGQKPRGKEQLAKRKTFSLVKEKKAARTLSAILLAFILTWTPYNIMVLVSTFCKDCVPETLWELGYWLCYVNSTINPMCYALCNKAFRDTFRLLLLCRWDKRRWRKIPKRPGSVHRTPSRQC
Type of experiment: functional, cell-based.

The target of experiment [7] is D(3) dopamine receptor (Homo sapiens, UniProt P35462).
For experiment [8], the target named is Acetylcholinesterase (Homo sapiens, UniProt P22303). Type of experiment: functional.
Sequence of Acetylcholinesterase (P22303 whole entry): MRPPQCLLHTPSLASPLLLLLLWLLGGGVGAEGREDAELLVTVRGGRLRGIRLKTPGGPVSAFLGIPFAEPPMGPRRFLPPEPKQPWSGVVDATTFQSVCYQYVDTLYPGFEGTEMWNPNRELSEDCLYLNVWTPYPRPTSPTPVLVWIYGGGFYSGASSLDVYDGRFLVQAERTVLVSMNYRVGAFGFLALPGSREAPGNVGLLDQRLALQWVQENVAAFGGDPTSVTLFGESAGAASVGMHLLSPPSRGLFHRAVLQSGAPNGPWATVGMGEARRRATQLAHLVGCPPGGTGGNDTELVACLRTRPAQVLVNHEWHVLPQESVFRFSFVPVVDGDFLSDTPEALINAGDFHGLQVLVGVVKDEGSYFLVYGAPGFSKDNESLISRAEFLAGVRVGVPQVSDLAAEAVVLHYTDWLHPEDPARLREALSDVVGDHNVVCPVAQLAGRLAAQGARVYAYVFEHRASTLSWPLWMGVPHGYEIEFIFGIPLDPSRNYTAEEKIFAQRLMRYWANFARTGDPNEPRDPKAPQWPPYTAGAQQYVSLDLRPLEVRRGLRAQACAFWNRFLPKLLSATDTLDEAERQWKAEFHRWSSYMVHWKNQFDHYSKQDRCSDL
The target in experiment [9] is Muscarinic acetylcholine receptor M3 (Homo sapiens, UniProt P20309).
Sequence of Muscarinic acetylcholine receptor M3 (P20309 whole entry): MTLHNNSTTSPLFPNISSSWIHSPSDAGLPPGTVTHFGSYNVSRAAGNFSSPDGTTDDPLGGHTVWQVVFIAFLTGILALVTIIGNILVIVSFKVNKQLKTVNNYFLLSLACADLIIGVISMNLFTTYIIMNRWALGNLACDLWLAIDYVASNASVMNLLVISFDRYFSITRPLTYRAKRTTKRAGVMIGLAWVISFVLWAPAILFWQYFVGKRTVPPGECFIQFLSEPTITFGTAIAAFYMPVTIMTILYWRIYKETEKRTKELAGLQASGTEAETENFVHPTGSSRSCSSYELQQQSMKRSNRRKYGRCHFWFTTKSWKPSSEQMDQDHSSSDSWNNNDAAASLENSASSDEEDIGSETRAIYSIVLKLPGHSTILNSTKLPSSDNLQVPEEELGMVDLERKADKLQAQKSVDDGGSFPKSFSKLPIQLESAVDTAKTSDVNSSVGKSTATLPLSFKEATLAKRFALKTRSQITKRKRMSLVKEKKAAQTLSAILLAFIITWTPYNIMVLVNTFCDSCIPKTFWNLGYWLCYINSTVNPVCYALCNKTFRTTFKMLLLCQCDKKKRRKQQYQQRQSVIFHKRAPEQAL
For experiment [10], the target named is Histamine H1 receptor (Homo sapiens, UniProt P35367).
Sequence of Histamine H1 receptor (P35367 whole entry): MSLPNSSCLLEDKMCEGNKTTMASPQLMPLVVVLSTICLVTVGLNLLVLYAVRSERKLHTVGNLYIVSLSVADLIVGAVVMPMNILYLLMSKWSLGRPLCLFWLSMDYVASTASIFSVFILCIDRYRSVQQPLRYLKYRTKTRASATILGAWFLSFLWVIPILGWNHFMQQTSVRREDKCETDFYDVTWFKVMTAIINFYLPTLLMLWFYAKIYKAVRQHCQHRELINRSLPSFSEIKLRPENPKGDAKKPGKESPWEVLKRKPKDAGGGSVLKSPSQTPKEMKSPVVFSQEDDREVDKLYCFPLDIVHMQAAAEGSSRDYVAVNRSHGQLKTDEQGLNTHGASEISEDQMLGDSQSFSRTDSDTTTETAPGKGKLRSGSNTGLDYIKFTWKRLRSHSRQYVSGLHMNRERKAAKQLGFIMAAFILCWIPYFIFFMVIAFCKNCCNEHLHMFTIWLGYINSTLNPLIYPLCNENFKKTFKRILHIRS
Experiment [11] has as its target Sodium-dependent serotonin transporter (Homo sapiens, UniProt P31645).
Experiment [12] has as its target T4, Mu-type opioid receptor (Homo sapiens, UniProt P35372). Nature of the experiment: biochemical. Type of experiment: functional.
For experiment [13], the target named is Beta-2 adrenergic receptor (Homo sapiens, UniProt P07550). The format is functional, cell-based.
Experiment [14] addresses Sodium-dependent dopamine transporter (Homo sapiens, UniProt Q01959).
The target in experiment [15] is Histamine H2 receptor (Homo sapiens, UniProt P25021). Type of experiment: functional, cell-based.
Sequence of Histamine H2 receptor (P25021 whole entry): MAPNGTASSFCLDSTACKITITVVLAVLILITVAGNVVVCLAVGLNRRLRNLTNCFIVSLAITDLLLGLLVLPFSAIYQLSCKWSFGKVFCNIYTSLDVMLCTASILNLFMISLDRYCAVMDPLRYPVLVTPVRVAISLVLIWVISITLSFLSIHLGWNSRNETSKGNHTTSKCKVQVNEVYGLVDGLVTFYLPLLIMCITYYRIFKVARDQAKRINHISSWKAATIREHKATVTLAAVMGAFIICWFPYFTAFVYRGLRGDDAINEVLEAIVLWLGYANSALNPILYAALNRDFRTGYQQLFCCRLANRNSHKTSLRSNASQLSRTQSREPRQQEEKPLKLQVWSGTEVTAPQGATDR
The target of experiment [16] is T4, Mu-type opioid receptor.
Further: assay procedure not described here.

Sequence of Sodium-dependent dopamine transporter (Q01959 whole entry): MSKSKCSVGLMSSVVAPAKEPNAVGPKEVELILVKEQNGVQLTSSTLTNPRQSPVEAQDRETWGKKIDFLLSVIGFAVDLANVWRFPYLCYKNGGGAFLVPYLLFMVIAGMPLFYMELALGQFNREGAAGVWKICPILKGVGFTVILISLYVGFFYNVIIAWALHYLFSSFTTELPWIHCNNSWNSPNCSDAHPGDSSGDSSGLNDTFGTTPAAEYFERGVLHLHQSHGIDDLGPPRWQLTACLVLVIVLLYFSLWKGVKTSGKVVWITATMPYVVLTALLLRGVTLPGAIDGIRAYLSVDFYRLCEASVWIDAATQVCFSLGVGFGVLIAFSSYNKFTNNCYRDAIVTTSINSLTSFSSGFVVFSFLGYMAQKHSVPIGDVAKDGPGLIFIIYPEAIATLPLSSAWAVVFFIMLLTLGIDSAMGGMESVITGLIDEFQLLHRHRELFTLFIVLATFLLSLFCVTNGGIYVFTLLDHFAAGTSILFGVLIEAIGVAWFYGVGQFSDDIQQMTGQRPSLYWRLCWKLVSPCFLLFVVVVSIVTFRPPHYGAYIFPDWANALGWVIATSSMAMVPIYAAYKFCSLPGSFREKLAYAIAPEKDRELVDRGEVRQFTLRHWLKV
Sequence of Prostaglandin G/H synthase 1 (P23219 whole entry): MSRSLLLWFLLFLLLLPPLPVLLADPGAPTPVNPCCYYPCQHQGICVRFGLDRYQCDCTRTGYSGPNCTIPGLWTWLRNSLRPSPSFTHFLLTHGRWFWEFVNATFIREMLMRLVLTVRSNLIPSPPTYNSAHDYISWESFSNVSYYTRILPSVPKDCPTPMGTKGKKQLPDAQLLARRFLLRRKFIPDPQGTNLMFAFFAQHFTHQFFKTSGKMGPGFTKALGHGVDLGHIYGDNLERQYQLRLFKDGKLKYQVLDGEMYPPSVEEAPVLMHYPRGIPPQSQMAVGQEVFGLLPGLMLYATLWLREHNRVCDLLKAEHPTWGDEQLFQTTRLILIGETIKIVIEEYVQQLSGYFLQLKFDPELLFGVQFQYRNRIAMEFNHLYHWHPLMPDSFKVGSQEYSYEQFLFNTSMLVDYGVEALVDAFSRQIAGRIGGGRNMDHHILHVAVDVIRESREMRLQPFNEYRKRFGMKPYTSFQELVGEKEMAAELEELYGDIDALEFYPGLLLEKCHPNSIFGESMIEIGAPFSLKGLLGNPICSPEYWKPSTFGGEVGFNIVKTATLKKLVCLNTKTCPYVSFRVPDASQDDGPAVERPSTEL
Sequence of Sodium-dependent serotonin transporter (P31645 whole entry): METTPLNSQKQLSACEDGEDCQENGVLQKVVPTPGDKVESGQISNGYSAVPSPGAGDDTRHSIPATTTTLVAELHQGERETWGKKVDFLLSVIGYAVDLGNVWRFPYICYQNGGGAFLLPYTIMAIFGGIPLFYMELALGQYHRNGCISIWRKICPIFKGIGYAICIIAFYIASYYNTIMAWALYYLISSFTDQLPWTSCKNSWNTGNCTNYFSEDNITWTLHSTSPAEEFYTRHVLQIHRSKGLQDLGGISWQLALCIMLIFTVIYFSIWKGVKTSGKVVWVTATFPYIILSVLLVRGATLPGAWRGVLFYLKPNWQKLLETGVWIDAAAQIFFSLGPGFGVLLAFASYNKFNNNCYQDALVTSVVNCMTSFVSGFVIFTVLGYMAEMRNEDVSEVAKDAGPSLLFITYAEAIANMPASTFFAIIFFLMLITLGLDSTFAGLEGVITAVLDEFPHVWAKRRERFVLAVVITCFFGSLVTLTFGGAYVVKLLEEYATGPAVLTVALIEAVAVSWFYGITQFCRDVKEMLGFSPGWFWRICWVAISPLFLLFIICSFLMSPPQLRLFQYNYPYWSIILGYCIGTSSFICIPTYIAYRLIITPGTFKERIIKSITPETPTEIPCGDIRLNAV
T4 sequence (P35372 whole entry): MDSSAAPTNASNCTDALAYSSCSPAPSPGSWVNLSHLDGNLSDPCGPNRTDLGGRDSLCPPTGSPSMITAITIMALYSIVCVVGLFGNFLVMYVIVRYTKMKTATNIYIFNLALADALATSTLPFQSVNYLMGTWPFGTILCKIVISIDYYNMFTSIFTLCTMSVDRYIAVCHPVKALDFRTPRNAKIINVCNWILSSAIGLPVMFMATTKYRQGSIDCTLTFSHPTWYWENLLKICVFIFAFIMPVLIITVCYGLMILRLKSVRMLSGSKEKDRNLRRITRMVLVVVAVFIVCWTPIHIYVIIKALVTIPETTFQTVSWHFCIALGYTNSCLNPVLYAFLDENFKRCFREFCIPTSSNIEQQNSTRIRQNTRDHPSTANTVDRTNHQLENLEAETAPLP

As for `OC[C@H]1NC[C@H](O)[C@@H](O)[C@H]1O`, the AC50 in [1], in [2], in experiment [3], in experiment [4], in experiment [5] and in experiment [6] was > 30 µM each time. Moreover, the concentration at half-maximal activity (AC50) in experiment [7] and in [8] was > 30 µM throughout.
Turning to `CC#CC(=O)N1CCC[C@H]1c1nc(-c2ccc(C(=O)Nc3ccccn3)cc2)c2c(N)nccn12` [ACALABRUTINIB], the half-maximal activity concentration (AC50) in [1], in experiment [2], in [3], in experiment [4], in experiment [5] and in experiment [6] was > 30 µM throughout. For the same compound, the AC50 in experiment [7] and in [8] was > 30 µM throughout.
For the compound `C=CCOc1ccc(CC(=O)O)cc1Cl` [ALCLOFENAC], the AC50 in [1], in experiment [2], in experiment [3], in experiment [4], in experiment [5] and in [6] was > 30 µM in each case. Moreover, the AC50 in experiment [8] is > 30 µM.
Take `CN(C)CCc1c[nH]c2ccc(CS(=O)(=O)N3CCCC3)cc12` [ALMOTRIPTAN]: the AC50 in experiment [9], in experiment [10], in experiment [11], in experiment [12], in experiment [13] and in experiment [14] was > 30 µM in each case. Besides, the AC50 in experiment [15] was > 30 µM.
With `NCCCNCCSP(=O)(O)O` [AMIFOSTINE], the AC50 in experiment [12], in experiment [13], in experiment [14] and in experiment [15] was > 30 µM throughout.
Take `CN(C)CCOC(c1ccc(Cl)cc1)c1ccccn1` (configuration not stated) [CARBINOXAMINE]: the AC50 is > 30 µM in experiment [9]; 0.11 µM in experiment [10]; 3 µM in experiment [11]; > 30 µM in experiment [12]; > 30 µM in experiment [13]; 5.2 µM in experiment [14]. Also, the AC50 in experiment [15] is > 30 µM.
`CCN(CC)CCn1c(=O)c(Cc2ccc(OC)cc2)nc2ccccc21` [CAROVERINE]: the AC50 was > 30 µM in experiment [9]; 25 µM in experiment [10]; > 30 µM in experiment [11]; > 30 µM in [12]; > 30 µM in [13]; > 30 µM in experiment [14]. Also, the AC50 in experiment [15] was > 30 µM.
As for `O=C(Cc1cccs1)N[C@@H]1C(=O)N2C(C(=O)[O-])=C(C[n+]3ccccc3)CS[C@H]12` [CEPHALORIDINE], the concentration at half-maximal activity (AC50) in [1], in experiment [9], in experiment [10], in experiment [2], in experiment [3] and in experiment [12] was > 30 µM throughout. For the same compound, the AC50 is > 30 µM in experiment [4]; > 30 µM in [13]; 16.4 µM in [5]; > 30 µM in [7]; > 30 µM in experiment [15]; > 30 µM in [8].
As for `CN1CCN(C(c2ccccc2)c2ccc(Cl)cc2)CC1` (configuration not stated) [CHLORCYCLIZINE], the half-maximal activity concentration (AC50) was 11.3 µM in experiment [2]; 0.505 µM in experiment [3]; 15.8 µM in [4]; > 30 µM in [5]; 0.691 µM in experiment [6]; 0.449 µM in experiment [7]. In experiment [8], the AC50 was > 30 µM.
With `CCCCCCCCCCCCCCCC(=O)OC[C@H](COP(=O)([O-])OCC[N+](C)(C)C)OC(=O)CCCCCCCCCCCCCCC` [COLFOSCERIL PALMITATE], the AC50 in experiment [1], in experiment [2], in [3], in experiment [4], in experiment [5] and in experiment [6] was > 30 µM in each case. Moreover, the AC50 in experiment [7] and in experiment [8] was > 30 µM throughout.
In the case of `CC(C)Nc1cccnc1N1CCN(C(=O)c2cc3cc(NS(C)(=O)=O)ccc3[nH]2)CC1` [DELAVIRDINE], the AC50 is 23.2 µM in experiment [1]; > 30 µM in [2]; > 30 µM in [3]; > 30 µM in [4]; > 30 µM in experiment [5]; 16.4 µM in experiment [6]. Also, the AC50 in [7] and in experiment [8] was > 30 µM each time.
In the case of `CCOC(=O)Nc1ccc(NCc2ccc(F)cc2)nc1N` [FLUPIRTINE], the AC50 in [9], in experiment [10], in [11], in experiment [12], in experiment [13] and in [14] was > 30 µM in each case. The concentration at half-maximal activity (AC50) in experiment [15] is > 30 µM.
Regarding `N[C@@H](Cc1cc(I)c(Oc2cc(I)c(O)c(I)c2)c(I)c1)C(=O)O` [LEVOTHYROXINE], the AC50 in [9], in [10], in experiment [11], in experiment [12], in experiment [13] and in experiment [14] was > 30 µM in each case. In addition, the AC50 in [15] was > 30 µM.
As for `CC(=O)NC[C@H]1CN(c2ccc(N3CCOCC3)c(F)c2)C(=O)O1` [LINEZOLID], the AC50 in [9], in experiment [10], in [12], in experiment [13] and in [15] was > 30 µM each time.
Regarding `CS(=O)(=O)Nc1ccc([N+](=O)[O-])cc1Oc1ccccc1` [NIMESULIDE], the AC50 in experiment [1], in experiment [2], in experiment [3], in experiment [12], in [4] and in experiment [13] was > 30 µM in each case. The AC50 in [7] was > 30 µM; in experiment [14], 9 µM; in experiment [15], > 30 µM; in experiment [8], > 30 µM.
For the compound `C#CCN(C)Cc1ccccc1` [PARGYLINE], the AC50 in experiment [1], in experiment [9], in [10], in [2], in experiment [3] and in experiment [12] was > 30 µM each time. The AC50 in [4], in [13], in [5], in experiment [7], in experiment [15] and in [8] was > 30 µM in each case.
For the compound `CCOc1ccccc1OCCN[C@H](C)Cc1ccc(OC)c(S(N)(=O)=O)c1` [TAMSULOSIN], the AC50 in experiment [16] is 5.3 µM; in experiment [9] it was > 30 µM; in experiment [10], > 10 µM; in [11], > 30 µM; in experiment [12], 3.8 µM; in [14], > 30 µM. Moreover, in experiment [15], the AC50 was > 10 µM.
With `Cc1c(C)c2c(c(C)c1O)CCC(C)(COc1ccc(CC3SC(=O)NC3=O)cc1)O2` (configuration not stated) [TROGLITAZONE], the AC50 in experiment [16] is > 30 µM; in experiment [2], 17.6 µM; in experiment [3] it was 17.8 µM; in experiment [12], > 30 µM; in experiment [4], > 30 µM; in experiment [13], > 30 µM. The AC50 in [5] was 5.93 µM; in [7], 6.23 µM; in experiment [14] it was 23.7 µM; in experiment [15] it was > 30 µM; in [8], > 30 µM.
